According to PMC5047857, “Screening, production, optimization and characterization of β-glucosidase using microbes from shellfish waste” (3 Biotech, 2016):

Tested on: T1, β-glucosidase
T1 construct: gene EC 3.2.1.21; native extracellular enzyme, partially purified from culture (ammonium sulfate, dialysis, Sephadex gel filtration); approx. 50 kDa by SDS-PAGE
Test: p-nitrophenol release, absorbance at […] nm; plot of activity against substrate concentration
Assay type: biochemical, Proteus mirabilis
Conditions: partially purified enzyme; substrate of the standard assay (pNPG); pH and temperature of the kinetic run not given

SMILES: O=[N+]([O-])c1ccc(O[C@@H]2O[C@H](CO)[C@@H](O)[C@H](O)[C@H]2O)cc1 [pNPG, p-Nitrophenyl-β-D-glucopyranoside]
- Km: 82 µM
